For orientation: IC50 means the point on the concentration scale where inhibition reaches its midpoint. Read a high IC50 as weaker potency in that assay.

In brackets after ≈: the same amount, converted by molar mass.

The assay concerns P388. Kind of assay: Cytotoxicity against mouse P388 cells after 48 hrs by MTT assay. It counts as functional, cell-based. Particulars: P388, 48 h. A general note: Tetrazolium assays rely on reduction of a dye to a coloured formazan, in cell work by metabolically active cells.

Compound `C=C1[C@@H](O)C[C@H](OC(C)=O)[C@@]2(C)[C@@H](OC(C)=O)[C@H](OC(=O)c3ccccc3)C3=C(C)C(=O)C[C@@]3(C(C)(C)O)[C@@H](OC(C)=O)[C@H]12` [13-OXO-TAXCHININ A] came in with an IC50 of 10 µg/mL (≈ 16.3 µM).
In the case of `CCC(C)CCC(=O)N[C@@H](c1ccccc1)[C@@H](O)C(=O)O[C@H]1C[C@@]2(O)[C@@H](OC(=O)c3ccccc3)[C@@H]3[C@]4(OC(C)=O)CO[C@@H]4C[C@H](O)[C@@]3(C)C(=O)[C@H](OC(C)=O)C(=C1C)C2(C)C` (stereo partly drawn) [TAXUSPINANANE A] it was 0.01 µg/mL (≈ 0.0116 µM).
Next, `CC(=O)O[C@H]1C(=O)[C@@]2(C)[C@H]([C@H](OC(=O)c3ccccc3)[C@]3(O)C[C@H](OC(=O)[C@H](O)[C@@H](NC(=O)c4ccccc4)c4ccccc4)C(C)=C1C3(C)C)[C@]1(OC(C)=O)CO[C@@H]1C[C@@H]2O` [PACLITAXEL]: 0.03 µg/mL (≈ 0.0351 µM).

The values are drawn from ChEMBL document CHEMBL1146407, “Taxuspinananes A and B, new taxoids from Taxus cuspidata var. nana” (J Nat Prod, 1997).
